In ChEMBL document CHEMBL1909046, “DrugMatrix in vitro pharmacology data”:

How the values were obtained:
[1] = target: cGMP-specific 3',5'-cyclic phosphodiesterase (Homo sapiens, UniProt O76074); test: DRUGMATRIX: Phosphodiesterase PDE5 enzyme inhibition (substrate: [3H]cGMP + cGMP); type: tissue-based, Platelet; details: platelet; Not Active = under 50% inhibition at 10 µM
Melanocortin receptor 3 = Melanocortin receptor 3 (Homo sapiens, UniProt P41968); type: cell membranes, Membrane; details: hek293; further: in other assays of this panel Not Active means under 50% inhibition at 10 µM
Progesterone receptor = target: T1, Progesterone receptor (Bos taurus, UniProt Q690N0); test: DRUGMATRIX: Progesterone radioligand binding (ligand: [3H] R-5020); type: tissue-based, Uterus; details: Not Active = under 50% inhibition at 10 µM
T1 sequence (Q690N0 whole entry): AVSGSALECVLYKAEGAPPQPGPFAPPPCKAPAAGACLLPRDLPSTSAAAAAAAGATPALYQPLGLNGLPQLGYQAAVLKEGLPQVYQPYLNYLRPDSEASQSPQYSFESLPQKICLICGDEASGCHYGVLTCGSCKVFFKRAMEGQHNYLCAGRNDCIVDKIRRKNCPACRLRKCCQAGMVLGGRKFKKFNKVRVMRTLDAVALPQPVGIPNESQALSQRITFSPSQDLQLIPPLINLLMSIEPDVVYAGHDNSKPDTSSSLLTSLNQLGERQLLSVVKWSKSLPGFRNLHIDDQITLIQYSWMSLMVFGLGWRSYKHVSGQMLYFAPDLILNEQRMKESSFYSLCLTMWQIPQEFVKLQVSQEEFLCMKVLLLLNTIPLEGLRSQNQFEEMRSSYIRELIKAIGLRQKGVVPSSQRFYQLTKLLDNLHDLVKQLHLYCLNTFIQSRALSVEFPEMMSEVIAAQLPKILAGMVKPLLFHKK

[2] = target: Delta-type opioid receptor (Homo sapiens, UniProt P41143); type: cell membranes, HEK293, Membrane; details: hek293; further: in other assays of this panel Not Active means under 50% inhibition at 10 µM
[3] = target: T2, Cholecystokinin receptor type A (Homo sapiens, UniProt P32238); type: cell membranes, Membrane; details: 1321-n1; further: in other assays of this panel Not Active means under 50% inhibition at 10 µM
T2 sequence (P32238 whole entry): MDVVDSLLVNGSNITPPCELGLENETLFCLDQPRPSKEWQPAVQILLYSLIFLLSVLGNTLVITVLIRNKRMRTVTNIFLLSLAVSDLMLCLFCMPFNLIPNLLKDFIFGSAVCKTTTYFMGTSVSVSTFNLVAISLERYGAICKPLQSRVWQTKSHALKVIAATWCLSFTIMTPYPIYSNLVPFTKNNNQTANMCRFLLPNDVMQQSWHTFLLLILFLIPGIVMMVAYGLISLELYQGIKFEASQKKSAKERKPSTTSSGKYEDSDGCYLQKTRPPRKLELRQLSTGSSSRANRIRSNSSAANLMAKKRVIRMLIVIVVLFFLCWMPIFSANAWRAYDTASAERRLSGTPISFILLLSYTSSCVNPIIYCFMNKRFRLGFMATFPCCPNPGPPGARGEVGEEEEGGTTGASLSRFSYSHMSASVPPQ

[4] = DRUGMATRIX: GABAA, Chloride Channel, TBOB radioligand binding (ligand: [3H] TBOB); type: cell membranes, Rattus norvegicus, Wistar, Cerebral cortex, Membrane; details: Not Active = under 50% inhibition at 10 µM
[5] = DRUGMATRIX: beta-Lactamase enzyme inhibition (substrate: Nitrocefin); set-up: species or system Bacillus cereus; details: Not Active = under 50% inhibition at 10 µM

Chain of Delta-type opioid receptor (P41143 whole entry): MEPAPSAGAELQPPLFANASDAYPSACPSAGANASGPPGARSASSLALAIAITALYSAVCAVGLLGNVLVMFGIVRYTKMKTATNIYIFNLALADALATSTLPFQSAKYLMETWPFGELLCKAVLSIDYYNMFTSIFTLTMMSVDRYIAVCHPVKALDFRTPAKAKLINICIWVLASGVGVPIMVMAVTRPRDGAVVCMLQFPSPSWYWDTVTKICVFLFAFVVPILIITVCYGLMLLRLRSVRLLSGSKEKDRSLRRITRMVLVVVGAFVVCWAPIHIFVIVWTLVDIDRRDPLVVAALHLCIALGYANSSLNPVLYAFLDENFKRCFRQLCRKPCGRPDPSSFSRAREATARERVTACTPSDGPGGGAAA
Chain of Melanocortin receptor 3 (P41968 whole entry): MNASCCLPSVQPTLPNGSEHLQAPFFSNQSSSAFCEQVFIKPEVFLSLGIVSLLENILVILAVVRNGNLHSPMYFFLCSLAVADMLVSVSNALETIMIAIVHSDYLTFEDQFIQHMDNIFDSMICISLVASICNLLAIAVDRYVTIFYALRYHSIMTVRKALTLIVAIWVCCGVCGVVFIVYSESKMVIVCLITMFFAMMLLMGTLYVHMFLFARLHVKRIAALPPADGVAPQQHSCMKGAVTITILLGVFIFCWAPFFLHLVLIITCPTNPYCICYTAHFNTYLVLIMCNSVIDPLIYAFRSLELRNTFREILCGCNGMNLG

CNC1=Nc2ccc(Cl)cc2C(c2ccccc2)=[N+]([O-])C1 [CHLORDIAZEPOXIDE]
Not Active: IC50 [1] | IC50 (Melanocortin receptor 3) | IC50 (Progesterone receptor) | IC50 [2] | IC50 [3] | IC50 [4] | Ki [4] | IC50 [5] | Ki [5]

Cc1cc(O)cc(C)c1Cl [CHLOROXYLENOL]
Not Active: IC50 [1] | IC50 (Melanocortin receptor 3) | IC50 (Progesterone receptor) | IC50 [2] | IC50 [3] | IC50 [4] | Ki [4] | IC50 [5] | Ki [5]

CCCNC(=O)NS(=O)(=O)c1ccc(Cl)cc1 [CHLORPROPAMIDE]
Not Active: IC50 [1] | IC50 (Melanocortin receptor 3) | IC50 (Progesterone receptor) | IC50 [2] | IC50 [3] | IC50 [4] | Ki [4] | IC50 [5] | Ki [5]

NS(=O)(=O)c1cc(C2(O)NC(=O)c3ccccc32)ccc1Cl (stereo not drawn) [CHLORTHALIDONE]
Not Active: IC50 [1] | IC50 (Melanocortin receptor 3) | IC50 (Progesterone receptor) | IC50 [2] | IC50 [3] | IC50 [4] | Ki [4] | IC50 [5] | Ki [5]

O=C(O)CC(O)(CC(=O)O)C(=O)O [CITRIC ACID]
Not Active: IC50 [1] | IC50 (Melanocortin receptor 3) | IC50 (Progesterone receptor) | IC50 [2] | IC50 [3] | IC50 [4] | Ki [4] | IC50 [5] | Ki [5]

CC(C)NCC(O)c1ccccc1Cl (stereo not drawn) [CLORPRENALINE]
Not Active: IC50 [1] | IC50 (Melanocortin receptor 3) | IC50 (Progesterone receptor) | IC50 [2] | IC50 [3] | IC50 [4] | Ki [4] | IC50 [5] | Ki [5]

CN1CCN(C(c2ccccc2)c2ccccc2)CC1 [CYCLIZINE]
Not Active: IC50 [1] | IC50 (Melanocortin receptor 3) | IC50 (Progesterone receptor) | IC50 [2] | IC50 [3] | IC50 [4] | Ki [4] | IC50 [5] | Ki [5]

CN1C[C@@H]2C[C@H]1CN2c1cc2c(cc1F)c(=O)c(C(=O)O)cn2C1CC1 [DANOFLOXACIN]
Not Active: IC50 [1] | IC50 (Melanocortin receptor 3) | IC50 (Progesterone receptor) | IC50 [2] | IC50 [3] | IC50 [4] | Ki [4] | IC50 [5] | Ki [5]

COc1cccc2c1C(=O)c1c(O)c3c(c(O)c1C2=O)C[C@@](O)(C(C)=O)C[C@@H]3O[C@H]1C[C@H](N)[C@H](O)[C@H](C)O1 [DAUNORUBICIN]
Not Active: IC50 [1] | IC50 (Melanocortin receptor 3) | IC50 (Progesterone receptor) | IC50 [2] | IC50 [3] | IC50 [4] | Ki [4] | IC50 [5] | Ki [5]

O=C(O)c1cc(-c2ccc(F)cc2F)ccc1O [DIFLUNISAL]
Not Active: IC50 [1] | IC50 (Melanocortin receptor 3) | IC50 (Progesterone receptor) | IC50 [2] | IC50 [3] | IC50 [4] | Ki [4] | IC50 [5] | Ki [5]

C[S+](C)[O-] [DIMETHYL SULFOXIDE]
Not Active: IC50 [1] | IC50 (Melanocortin receptor 3) | IC50 (Progesterone receptor) | IC50 [2] | IC50 [3] | IC50 [4] | Ki [4] | IC50 [5] | Ki [5]

CC1=NN(c2ccccc2)C(=O)C1 [EDARAVONE]
Not Active: IC50 [1] | IC50 (Melanocortin receptor 3) | IC50 (Progesterone receptor) | IC50 [2] | IC50 [3] | IC50 [4] | Ki [4] | IC50 [5] | Ki [5]
